Legend:
Assay in all cases: relative viability (nuclei count vs DMSO), 5 days (fraction); higher = more cells survive
NCI-H1666 = system: NCI-H1666
Method in brief: (§1)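 One day after seeding in 1536-well plates, lung cancer cell lines were dosed by pin tool. Dosing was either single-drug or a fixed anchor-drug dose plus five library-drug doses (not always all listed) in √10 steps. After 5 days, nuclei were stained in one fix-and-stain step and counted on 4× images, and relative viability is the nuclei count of treated wells over that of vehicle wells, given as the median of duplicate plates.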

LC-2-ad = system: LC-2-ad
Method in brief: as §1

NCI-H1703 = system: NCI-H1703
Method in brief: as §1

EKVX = system: EKVX
Method in brief: as §1

NCI-H1648 = system: NCI-H1648
Method in brief: as §1

ChaGo-K-1 = system: ChaGo-K-1
Method in brief: as §1

CN1CCN(CCOc2cc(OC3CCOCC3)c3c(Nc4c(Cl)ccc5c4OCO5)ncnc3c2)CC1 [Saracatinib] + NC(=O)Nc1cc(-c2cccc(F)c2)sc1C(=O)N[C@H]1CCCNC1 [AZD7762] (partner 0.2 µM)
relative viability (NCI-H1666; first compound 0.02 µM): 0.956
relative viability (NCI-H1666; first compound 0.2 µM): 0.821
relative viability (NCI-H1666; first compound 0.6325 µM): 1.07
relative viability (NCI-H1666; first compound 2 µM): 0.847
relative viability (LC-2-ad; first compound 0.02 µM): 0.841
relative viability (LC-2-ad; first compound 0.2 µM): 0.778
relative viability (LC-2-ad; first compound 0.6325 µM): 0.835
relative viability (LC-2-ad; first compound 2 µM): 0.726
relative viability (NCI-H1703; first compound 0.02 µM): 0.136
relative viability (NCI-H1703; first compound 0.6325 µM): 0.129
relative viability (NCI-H1703; first compound 2 µM): 0.114
relative viability (EKVX; first compound 0.02 µM): 0.841
relative viability (EKVX; first compound 0.6325 µM): 0.659
relative viability (EKVX; first compound 2 µM): 0.29
relative viability (NCI-H1648; first compound 0.02 µM): 0.79
relative viability (NCI-H1648; first compound 0.2 µM): 0.633
relative viability (NCI-H1648; first compound 0.6325 µM): 0.865
relative viability (NCI-H1648; first compound 2 µM): 0.379
relative viability (ChaGo-K-1; first compound 0.02 µM): 0.895
relative viability (ChaGo-K-1; first compound 0.2 µM): 0.614
relative viability (ChaGo-K-1; first compound 0.6325 µM): 0.967
relative viability (ChaGo-K-1; first compound 2 µM): 0.924

Cc1csc(=NC2CCCCC2)n1/N=C/c1ccc(O)c(O)c1O [MIM1] + CC(=O)c1c(C)c2cnc(Nc3ccc(N4CCNCC4)cn3)nc2n(C2CCCC2)c1=O [Palbociclib] (partner 0.5 µM)
relative viability (NCI-H1666; first compound 0.2 µM): 0.668
relative viability (NCI-H1666; first compound 0.6325 µM): 0.608
relative viability (NCI-H1666; first compound 2 µM): 0.611
relative viability (NCI-H1666; first compound 6.325 µM): 0.647
relative viability (NCI-H1666; first compound 20 µM): 0.67
relative viability (LC-2-ad; first compound 0.2 µM): 0.463
relative viability (LC-2-ad; first compound 0.6325 µM): 0.471
relative viability (LC-2-ad; first compound 2 µM): 0.502
relative viability (LC-2-ad; first compound 6.325 µM): 0.289
relative viability (LC-2-ad; first compound 20 µM): 0.182
relative viability (EKVX; first compound 0.2 µM): 0.332
relative viability (EKVX; first compound 0.6325 µM): 0.367
relative viability (EKVX; first compound 2 µM): 0.339
relative viability (EKVX; first compound 6.325 µM): 0.312
relative viability (EKVX; first compound 20 µM): 0.286
relative viability (NCI-H1648; first compound 0.2 µM): 0.262
relative viability (NCI-H1648; first compound 0.6325 µM): 0.284
relative viability (NCI-H1648; first compound 2 µM): 0.311
relative viability (NCI-H1648; first compound 6.325 µM): 0.276
relative viability (NCI-H1648; first compound 20 µM): 0.248
relative viability (ChaGo-K-1; first compound 0.2 µM): 0.951
relative viability (ChaGo-K-1; first compound 0.6325 µM): 0.926
relative viability (ChaGo-K-1; first compound 2 µM): 0.961
relative viability (ChaGo-K-1; first compound 6.325 µM): 0.7
relative viability (ChaGo-K-1; first compound 20 µM): 0.163

Cc1csc(=NC2CCCCC2)n1/N=C/c1ccc(O)c(O)c1O [MIM1] + CC(=O)Nc1cccc(-n2c(=O)n(C3CC3)c(=O)c3c(Nc4ccc(I)cc4F)n(C)c(=O)c(C)c32)c1 [Trametinib] (partner 0.02 µM)
relative viability (NCI-H1666; first compound 0.2 µM): 0.929
relative viability (NCI-H1666; first compound 0.6325 µM): 0.833
relative viability (NCI-H1666; first compound 2 µM): 0.847
relative viability (NCI-H1666; first compound 6.325 µM): 0.826
relative viability (NCI-H1666; first compound 20 µM): 0.426
relative viability (LC-2-ad; first compound 0.2 µM): 0.904
relative viability (LC-2-ad; first compound 0.6325 µM): 0.941
relative viability (LC-2-ad; first compound 2 µM): 0.913
relative viability (LC-2-ad; first compound 6.325 µM): 0.529
relative viability (LC-2-ad; first compound 20 µM): 0.739
relative viability (EKVX; first compound 0.2 µM): 0.304
relative viability (EKVX; first compound 0.6325 µM): 0.287
relative viability (EKVX; first compound 2 µM): 0.289
relative viability (EKVX; first compound 6.325 µM): 0.267
relative viability (EKVX; first compound 20 µM): 0.269
relative viability (NCI-H1648; first compound 0.2 µM): 0.419
relative viability (NCI-H1648; first compound 0.6325 µM): 0.439
relative viability (NCI-H1648; first compound 2 µM): 0.619
relative viability (NCI-H1648; first compound 6.325 µM): 0.499
relative viability (NCI-H1648; first compound 20 µM): 0.267
relative viability (ChaGo-K-1; first compound 0.2 µM): 0.889
relative viability (ChaGo-K-1; first compound 0.6325 µM): 0.913
relative viability (ChaGo-K-1; first compound 2 µM): 0.876
relative viability (ChaGo-K-1; first compound 6.325 µM): 0.607
relative viability (ChaGo-K-1; first compound 20 µM): 0.193

Cc1cn(-c2cc(NC(=O)c3ccc(C)c(Nc4nccc(-c5cccnc5)n4)c3)cc(C(F)(F)F)c2)cn1 [Nilotinib] + NC(=O)Nc1cc(-c2cccc(F)c2)sc1C(=O)N[C@H]1CCCNC1 [AZD7762] (partner 0.2 µM)
relative viability (NCI-H1666; first compound 0.001 µM): 0.78
relative viability (NCI-H1666; first compound 0.01 µM): 0.855
relative viability (NCI-H1666; first compound 0.03162 µM): 0.74
relative viability (NCI-H1666; first compound 0.1 µM): 0.724
relative viability (LC-2-ad; first compound 0.001 µM): 0.855
relative viability (LC-2-ad; first compound 0.003162 µM): 1.01
relative viability (LC-2-ad; first compound 0.01 µM): 1.02
relative viability (LC-2-ad; first compound 0.03162 µM): 0.748
relative viability (LC-2-ad; first compound 0.1 µM): 0.377
relative viability (NCI-H1703; first compound 0.001 µM): 0.117
relative viability (NCI-H1703; first compound 0.003162 µM): 0.121
relative viability (NCI-H1703; first compound 0.01 µM): 0.11
relative viability (NCI-H1703; first compound 0.03162 µM): 0.121
relative viability (NCI-H1703; first compound 0.1 µM): 0.117
relative viability (EKVX; first compound 0.001 µM): 0.599
relative viability (EKVX; first compound 0.003162 µM): 0.654
relative viability (EKVX; first compound 0.01 µM): 0.729
relative viability (EKVX; first compound 0.03162 µM): 0.688
relative viability (EKVX; first compound 0.1 µM): 0.555
relative viability (NCI-H1648; first compound 0.001 µM): 0.561
relative viability (NCI-H1648; first compound 0.003162 µM): 0.664
relative viability (NCI-H1648; first compound 0.01 µM): 0.663
relative viability (NCI-H1648; first compound 0.03162 µM): 0.569
relative viability (NCI-H1648; first compound 0.1 µM): 0.65
relative viability (ChaGo-K-1; first compound 0.001 µM): 0.884
relative viability (ChaGo-K-1; first compound 0.003162 µM): 0.975
relative viability (ChaGo-K-1; first compound 0.01 µM): 0.853
relative viability (ChaGo-K-1; first compound 0.03162 µM): 0.638
relative viability (ChaGo-K-1; first compound 0.1 µM): 0.344

— the supplement of paper PMC10307832
